# Measured values from PubChem BioAssay AID2060882 (Molecular Pharmacology Branch, DTP, NCI, 2025).
# pIC50: −log10 of the molar value.
# Tested on: 898857-211-R-J1-PDC complex spheroids, growth % test/control
# Test: Anticancer human tumor 898857-211-R-J1-PDC patient-derived melanoma cell line growth inhibition [RAS]
# Conditions: for pIC50: curve of first compound; for viability, T/C: stronger effect = lower value
# In short: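 Multi-cell-type spheroids: tumor cells plus HUVEC endothelial cells and mesenchymal stem cells. RAS-pathway inhibitors were combined with targeted agents, each dosed in half-log steps down from clinical Cmax, or from 10 microM when Cmax was unknown.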
# 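Note: spheroids exposed to compound for seven days before readout.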
# 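Throughout, for viability, T/C: 100% = DMSO vehicle control wells.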
smiles,measurement,setting,value
C=CC(=O)Nc1cc(Nc2nccc(-c3cn(C)c4ccccc34)n2)c(OC)cc1N(C)CCN(C)C + C#Cc1c(F)ccc2cc(O)cc(-c3ncc4c(N5CC6CCC(C5)N6)nc(OCC56CCCN5CC(F)C6)nc4c3F)c12,pIC50,second compound 0.0316 µM,< 6.00
same,pIC50,second compound 0.1 µM,< 6.00
same,pIC50,second compound 0.316 µM,< 6.00
same,pIC50,second compound 1 µM,< 6.00
same,pIC50,second compound 3.16 µM,6.11
same,pIC50,second compound 10 µM,7.62
same,"viability, T/C","second compound 0.0316 µM, first compound 0.00316 µM",103%
same,"viability, T/C","second compound 0.0316 µM, first compound 0.01 µM",92.3%
same,"viability, T/C","second compound 0.0316 µM, first compound 0.0316 µM",103%
same,"viability, T/C","second compound 0.0316 µM, first compound 0.1 µM",100%
same,"viability, T/C","second compound 0.0316 µM, first compound 0.316 µM",85.4%
same,"viability, T/C","second compound 0.0316 µM, first compound 1 µM",65.7%
same,"viability, T/C","second compound 0.1 µM, first compound 0.00316 µM",108%
same,"viability, T/C","second compound 0.1 µM, first compound 0.01 µM",105%
same,"viability, T/C","second compound 0.1 µM, first compound 0.0316 µM",107%
same,"viability, T/C","second compound 0.1 µM, first compound 0.1 µM",98.6%
same,"viability, T/C","second compound 0.1 µM, first compound 0.316 µM",94.7%
same,"viability, T/C","second compound 0.1 µM, first compound 1 µM",62.1%
same,"viability, T/C","second compound 0.316 µM, first compound 0.00316 µM",113%
same,"viability, T/C","second compound 0.316 µM, first compound 0.01 µM",101%
same,"viability, T/C","second compound 0.316 µM, first compound 0.0316 µM",111%
same,"viability, T/C","second compound 0.316 µM, first compound 0.1 µM",96.2%
same,"viability, T/C","second compound 0.316 µM, first compound 0.316 µM",85.8%
same,"viability, T/C","second compound 0.316 µM, first compound 1 µM",49.9%
same,"viability, T/C","second compound 1 µM, first compound 0.00316 µM",109%
same,"viability, T/C","second compound 1 µM, first compound 0.01 µM",95.8%
same,"viability, T/C","second compound 1 µM, first compound 0.0316 µM",109%
same,"viability, T/C","second compound 1 µM, first compound 0.1 µM",97.6%
same,"viability, T/C","second compound 1 µM, first compound 0.316 µM",93.6%
same,"viability, T/C","second compound 1 µM, first compound 1 µM",54.5%
same,"viability, T/C","second compound 3.16 µM, first compound 0.00316 µM",109%
same,"viability, T/C","second compound 3.16 µM, first compound 0.01 µM",105%
same,"viability, T/C","second compound 3.16 µM, first compound 0.0316 µM",102%
same,"viability, T/C","second compound 3.16 µM, first compound 0.1 µM",105%
same,"viability, T/C","second compound 3.16 µM, first compound 0.316 µM",87.6%
same,"viability, T/C","second compound 3.16 µM, first compound 1 µM",39%
same,"viability, T/C","second compound 10 µM, first compound 0.00316 µM",65.7%
same,"viability, T/C","second compound 10 µM, first compound 0.01 µM",48.1%
same,"viability, T/C","second compound 10 µM, first compound 0.0316 µM",45.1%
same,"viability, T/C","second compound 10 µM, first compound 0.1 µM",45.5%
same,"viability, T/C","second compound 10 µM, first compound 0.316 µM",19.9%
same,"viability, T/C","second compound 10 µM, first compound 1 µM",0.87%
